Assay results from US10555987B2, “GHRH agonists for the treatment of ischemic disorders” (UNIVERSITY OF MIAMI, priority 2012, dated 2020).
“Also recorded” adds a separate entry of the source. Non-standard residues stand in square brackets, D forms with d. Residues, ends and D or L forms follow the SMILES beside them. *: point of attachment. Phe(F5) = N[C@@H](Cc1c(F)c(F)c(F)c(F)c1F)C(=O)O; NMeY = CN[C@@H](Cc1ccc(O)cc1)C(=O)O; Agmatine = N=C(N)NCCCCN*; Nle = CCCC[C@H](N)C(=O)O; Orn = NCCC[C@H](N)C(=O)O; Abu = CC[C@H](N)C(=O)O

Tests used:
GH release [1] = test: GH releasing potency in vivo, subcutaneous administration (Example 14, Table 12); parameters: species or system rat; conditions: for Serum GH level at selected time after injection (ng/ml), 0 min / Serum GH level at selected time after injection (ng/ml), 15 min / Serum GH level at selected time after injection (ng/ml), 30 min: male rats, dose 3 μg/kg, mean ± SEM
Outline: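 Potency is expressed relative to GHRH(1-29)NH2 and JI-38 (each = 1), via equivalent GHRH(1-29)NH2 dose read from a standard curve. Peptides in 5% mannitol given i.v. or s.c. to anaesthetised male Sprague-Dawley rats (200-250 g); serum GH measured by ELISA at selected times.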

GHRH receptor = target: T1, GHRH receptor (Homo sapiens, UniProt Q02643); test: GHRH receptor binding, competition with 125I-labeled JV-1-42, human pituitary membrane homogenates (Table 7); parameters: Normal human pituitaries were purchased from the National Hormone and Peptide Program; tissue National Hormone and Peptide Program (A.F. Parlow, Harbor-UCLA Medical Center, Torrance, Calif.); host or cells: normal human pituitary, membrane fraction; conditions: JI-38 = 1, Table 7
T1 sequence (Q02643 23-423): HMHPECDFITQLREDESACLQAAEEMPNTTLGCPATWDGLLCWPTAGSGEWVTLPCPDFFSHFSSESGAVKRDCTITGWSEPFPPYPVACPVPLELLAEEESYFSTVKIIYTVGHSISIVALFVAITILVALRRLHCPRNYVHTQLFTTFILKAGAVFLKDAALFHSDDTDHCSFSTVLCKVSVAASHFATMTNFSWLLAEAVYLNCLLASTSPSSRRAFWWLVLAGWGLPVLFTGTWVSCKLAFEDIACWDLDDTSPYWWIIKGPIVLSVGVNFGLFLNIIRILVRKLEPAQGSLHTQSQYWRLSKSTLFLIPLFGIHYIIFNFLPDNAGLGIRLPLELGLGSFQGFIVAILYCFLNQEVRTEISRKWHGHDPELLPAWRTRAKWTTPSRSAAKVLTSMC
Excerpt: Normal human pituitaries were purchased from the National Hormone and Peptide Program (A.F. Parlow, Los Angeles, County Harbor-UCLA Medical Center, Torrance, Calif.).

GH release [2] = test: GH releasing potency in vivo, intravenous administration (Example 14, Table 13); parameters: species or system rat; conditions: i.v.
Description: Male Sprague-Dawley rats, weighing 200-250 g, were purchased from Charles River Laboratory (Wilmington, Mass.) and used for experiments. All animal procedures were approved by the Veterans Affairs Animal Care and Use Committee and were conducted in accordance with additional institutional guidelines as well. Briefly, groups of 5-6 animals were used in each experiment. The rats were anesthetized with 50 mg/kg of sodium pentobarbital (Nembutal, Lundbeck Inc., Deerfield, Ill.). Twenty min after inducing anesthesia, GHRH(1-29)NH2, JI-38, or new analogs were injected into the animals intravenously (i.v.) or subcutaneously (s.c.). The peptides were dissolved in 0.01 M acetic acid to get 1 μg/μl stock solution, and then diluted with 5% mannitol. Control rats received 5% mannitol only. Blood samples were collected from the jugular vein at selected times and were used for serum preparation. Concentrations of GH in rat sera were determined by ELISA. The relative potencies of tested peptides were calculated using GHRH(1-29)NH2 and JI-38 for comparison, whose potency was defined as 1. The equivalent dosage of GHRH(1-29)NH2 to reach the same level of serum growth hormone release after injection of the specific tested peptide was determined from a GHRH(1-29)NH2 standard curve using Origin 6.0 software. […] Serum GH was determined using the rat Growth Hormone ELISA kit (ALPCO Diagnostics, Mill Valley, Calif.) according to the manufacturer's instruction. Absorbance at 405 nm was measured by a Victor 3 Multi-label Counter (Perkin-Elmer, Waltham, Md.).

CCCC[C@H](NC(=O)[C@@H](NC(=O)[C@H](CC(=O)O)NC(=O)[C@H](CCC(N)=O)NC(=O)[C@H](CC(C)C)NC(=O)[C@H](CC(C)C)NC(=O)[C@H](CCCN)NC(=O)[C@H](CCCNC(=N)N)NC(=O)[C@H](C)NC(=O)[C@H](CO)NC(=O)[C@H](CC(C)C)NC(=O)[C@H](CCC(N)=O)NC(=O)[C@H](CC)NC(=O)[C@H](CC(C)C)NC(=O)[C@@H](NC(=O)[C@H](CCCN)NC(=O)[C@H](CCCNC(=N)N)NC(=O)[C@H](Cc1ccc(O)cc1)NC(=O)[C@H](CO)NC(=O)[C@H](CCC(N)=O)NC(=O)[C@@H](NC(=O)[C@H](Cc1ccccc1)NC(=O)[C@@H](NC(=O)[C@H](C)NC(=O)[C@H](CC(=O)O)NC(=O)[C@@H](C)NC(=O)[C@H](Cc1ccc(O)cc1)NC)[C@@H](C)CC)[C@@H](C)O)C(C)C)[C@@H](C)CC)C(=O)N[C@@H](CC(=O)O)C(=O)NCCCCNC(=N)N [Peptide P-20361, [N—Me-Tyr^1, D-Ala^2, Gln^8, Orn^12, Abu^15, Orn^21, Nle^27, Asp^28, Agm^29] hGHRH (1-29)NH2] (H-[NMeY][dA]DAIFTQSYR[Orn]VL[Abu]QLSAR[Orn]LLQDI[Nle]D-Agmatine)
Serum GH level at selected time after injection (ng/ml), 0 min (GH release [1]; s.c.): 46.1 ± 6.3 ng/mL | Serum GH level at selected time after injection (ng/ml), 15 min (GH release [1]; s.c.): 275.9 ± 46.4 ng/mL | Serum GH level at selected time after injection (ng/ml), 30 min (GH release [1]; s.c.): 142.6 ± 18.4 ng/mL | Relative potency compared to GHRH(1-29), 15 min (GH release [1]; s.c.): 80 | Relative potency compared to JI-38, 15 min (GH release [1]; s.c.): 1.27 | Relative potency compared to GHRH(1-29), 30 min (GH release [1]; s.c.): 134.1 | Relative potency compared to JI-38, 30 min (GH release [1]; s.c.): 1.20 | Relative affinity (Binding potency) vs JI-38 (GHRH receptor): 5.30

CCCC[C@H](NC(=O)[C@@H](NC(=O)[C@H](CC(=O)O)NC(=O)[C@H](CCC(N)=O)NC(=O)[C@H](CC(C)C)NC(=O)[C@H](CC(C)C)NC(=O)[C@H](CCCN)NC(=O)[C@H](CCCNC(=N)N)NC(=O)[C@H](C)NC(=O)[C@H](CO)NC(=O)[C@H](CC(C)C)NC(=O)[C@H](CCC(N)=O)NC(=O)[C@H](CC)NC(=O)[C@H](CC(C)C)NC(=O)[C@@H](NC(=O)[C@H](CCCN)NC(=O)[C@H](CCCNC(=N)N)NC(=O)[C@H](Cc1ccc(O)cc1)NC(=O)[C@H](CO)NC(=O)[C@H](CC(N)=O)NC(=O)[C@@H](NC(=O)[C@H](Cc1ccccc1)NC(=O)[C@@H](NC(=O)[C@H](C)NC(=O)[C@H](CC(=O)O)NC(=O)[C@@H](C)NC(=O)[C@H](Cc1ccc(O)cc1)NC)[C@@H](C)CC)[C@@H](C)O)C(C)C)[C@@H](C)CC)C(=O)N[C@@H](CC(=O)O)C(=O)NCCCCNC(=N)N [Peptide P-20367, [N—Me-Tyr^1, D-Ala^2, Orn^12, Abu^15, Orn^21, Nle^27, Asp^28, Agm^29]hGHRH(1-29)NH2] (H-[NMeY][dA]DAIFTNSYR[Orn]VL[Abu]QLSAR[Orn]LLQDI[Nle]D-Agmatine)
Serum GH level at selected time after injection (ng/ml), 0 min (GH release [1]; s.c.): 41.1 ± 5.6 ng/mL | Serum GH level at selected time after injection (ng/ml), 15 min (GH release [1]; s.c.): 244.0 ± 25.1 ng/mL | Serum GH level at selected time after injection (ng/ml), 30 min (GH release [1]; s.c.): 141.2 ± 12.3 ng/mL | Relative potency compared to GHRH(1-29), 15 min (GH release [1]; s.c.): 68.1 | Relative potency compared to JI-38, 15 min (GH release [1]; s.c.): 1.08 | Relative potency compared to GHRH(1-29), 30 min (GH release [1]; s.c.): 131.7 | Relative potency compared to JI-38, 30 min (GH release [1]; s.c.): 1.18 | Relative affinity (Binding potency) vs JI-38 (GHRH receptor): 2.56

CCCC[C@H](NC(=O)[C@@H](NC(=O)[C@H](CC(=O)O)NC(=O)[C@H](CCC(N)=O)NC(=O)[C@H](CC(C)C)NC(=O)[C@H](CC(C)C)NC(=O)[C@H](CCCN)NC(=O)[C@H](CCCNC(=N)N)NC(=O)[C@H](C)NC(=O)[C@H](CO)NC(=O)[C@H](CC(C)C)NC(=O)[C@H](CCC(N)=O)NC(=O)[C@H](CC)NC(=O)[C@H](CC(C)C)NC(=O)[C@@H](NC(=O)[C@H](CCCN)NC(=O)[C@H](CCCNC(=N)N)NC(=O)[C@H](Cc1ccc(O)cc1)NC(=O)[C@H](CO)NC(=O)[C@H](CCC(N)=O)NC(=O)[C@@H](NC(=O)[C@H](Cc1ccccc1)NC(=O)[C@@H](NC(=O)[C@H](C)NC(=O)[C@H](CC(=O)O)NC(=O)[C@@H](C)NC(=O)[C@H](Cc1ccc(O)cc1)NC)[C@@H](C)CC)[C@@H](C)O)C(C)C)[C@@H](C)CC)C(=O)N[C@@H](CC(=O)O)C(=O)N[C@@H](CCCNC(=N)N)C(=O)NC [Peptide P-27403, [N—Me-Tyr^1, D-Ala^2, Gln^8, Orn^12, Abu^15, Orn^21, Nle^27, Asp^28]hGHRH(1-29)NH—CH3] (H-[NMeY][dA]DAIFTQSYR[Orn]VL[Abu]QLSAR[Orn]LLQDI[Nle]DR-NHMe)
potency as compared to JI-38 in both i.v. and s.c. tests (GH release [1]; both i.v. and s.c. tests): increased potency as compared to JI-38 | Serum GH level at selected time after injection (ng/ml), 0 min (GH release [1]; s.c.): 39.4 ± 5.3 ng/mL | Serum GH level at selected time after injection (ng/ml), 15 min (GH release [1]; s.c.): 608.7 ± 35.3 ng/mL | Serum GH level at selected time after injection (ng/ml), 30 min (GH release [1]; s.c.): 281.7 ± 18.6 ng/mL | Relative potency compared to GHRH(1-29), 15 min (GH release [1]; s.c.): 223.8 | Relative potency compared to GHRH(1-29), 30 min (GH release [1]; s.c.): 448.9 | Relative GH-releasing potency compared to JI-38 in s.c. tests (fold, range over time points) (GH release [1]; s.c., time not specified): 3.6-4.0 | GH-releasing potency after s.c. administration (in words) (GH release [1]; s.c., listed as MR-403): highest GH-releasing potency; also recorded: significantly higher potencies at 30 minutes than at 15 minutes | Relative potency, 5 min (GH release [2]; 5 min, JI-38 = 1): 1.19 | Relative potency, 15 min (GH release [2]; 15 min, JI-38 = 1): 1.35 | Serum GH level at selected time after injection (ng/ml), 0 min (GH release [2]; dose 1 μg/kg, 0 min, mean ± SEM): 47.7 ± 4.1 ng/mL | Serum GH level at selected time after injection (ng/ml), 5 min (GH release [2]; dose 1 μg/kg, 5 min, mean ± SEM): 642 ± 29.7 ng/mL | Serum GH level at selected time after injection (ng/ml), 15 min (GH release [2]; dose 1 μg/kg, 15 min, mean ± SEM): 268 ± 21.1 ng/mL | Relative affinity (Binding potency) vs JI-38 (GHRH receptor): 27.19

CCCC[C@H](NC(=O)[C@@H](NC(=O)[C@H](CC(=O)O)NC(=O)[C@H](CCC(N)=O)NC(=O)[C@H](CC(C)C)NC(=O)[C@H](CC(C)C)NC(=O)[C@H](CCCN)NC(=O)[C@H](CCCNC(=N)N)NC(=O)[C@H](C)NC(=O)[C@H](CO)NC(=O)[C@H](CC(C)C)NC(=O)[C@H](CCC(N)=O)NC(=O)[C@H](CC)NC(=O)[C@H](CC(C)C)NC(=O)[C@@H](NC(=O)[C@H](CCCN)NC(=O)[C@H](CCCNC(=N)N)NC(=O)[C@H](Cc1ccc(O)cc1)NC(=O)[C@H](CO)NC(=O)[C@H](CCC(N)=O)NC(=O)[C@@H](NC(=O)[C@H](Cc1c(F)c(F)c(F)c(F)c1F)NC(=O)[C@@H](NC(=O)[C@H](C)NC(=O)[C@H](CC(=O)O)NC(=O)[C@@H](C)NC(=O)[C@H](Cc1ccc(O)cc1)NC)[C@@H](C)CC)[C@@H](C)O)C(C)C)[C@@H](C)CC)C(=O)N[C@@H](CC(=O)O)C(=O)N[C@@H](CCCNC(=N)N)C(=O)NC [Peptide P-27404, [N—Me-Tyr^1, D-Ala^2, Fpa5^6, Orn^12, Abu^15, Orn^21, Nle^27, Asp^28]hGHRH (1-29)NH—CH3] (H-[NMeY][dA]DAI[Phe(F5)]TQSYR[Orn]VL[Abu]QLSAR[Orn]LLQDI[Nle]DR-NHMe)
Serum GH level at selected time after injection (ng/ml), 0 min (GH release [1]; s.c.): 29.5 ± 3.2 ng/mL | Serum GH level at selected time after injection (ng/ml), 15 min (GH release [1]; s.c.): 320.5 ± 32.7 ng/mL | Serum GH level at selected time after injection (ng/ml), 30 min (GH release [1]; s.c.): 151 ± 28.5 ng/mL | Relative potency compared to GHRH(1-29), 15 min (GH release [1]; s.c.): 97.1 | Relative potency compared to JI-38, 15 min (GH release [1]; s.c.): 1.54 | Relative potency compared to GHRH(1-29), 30 min (GH release [1]; s.c.): 148.4 | Relative potency compared to JI-38, 30 min (GH release [1]; s.c.): 1.33 | Relative affinity (Binding potency) vs JI-38 (GHRH receptor): 5.00
